Data on five compounds can be found in US9757596B2, “Composition comprising at least 3 different diols” (AMBRIA DERMATOLOGY AB, priority 2004, dated 2017).

What all share (format): cell-based
The test system of experiment [1] is M. globosa CBS 7966. Put plainly: Test for bacteriostatic effect (MIC) in agar medium, M. globosa. Conditions: 10^7 cells/ml, DST agar, 37° C., analysed after 1 and 2 days; combinations: % of each diol. As to the method: (§1) Staphylococcus aureus number 515×6352 and Candida albicans H 29 were obtained from the Collection in the Department of Microbiology, […] University Hospital, Gothenburg, Sweden. The isolates were maintained on blood agar at 37° C. M. sympodialis CBS 7222 and M. globosa CBS 7966 Test for bacteriostatic effect (MIC=minimal inhitory concentration). […] Plates were incubated at 37° C. and analysed after 1 and 2 days. Each experiment was repeated.

Experiment [2] has as its system Staphylococcus aureus number 515×6352. Put plainly: Test for bacteriostatic effect (MIC) in agar medium, S. aureus. The note with it: combinations: % of each diol; for MIC S. aureaus 10^3: 10^3 cells/ml; for MIC S. aureaus 10^3 / MIC S. aureaus 10^5: DST agar, 37° C., analysed after 1 and 2 days; for MIC S. aureaus 10^5: 10^5 cells/ml; for concentration that completely inhibited the growth of S. aureus: cell concentration not specified. Here is the method: (§2) Staphylococcus aureus number 515×6352 and Candida albicans H 29 were obtained from the Collection in the Department of Microbiology, Sahigrenska University Hospital, Gothenburg, Sweden. The isolates were maintained on blood agar at 37° C. M. sympodialis CBS 7222 and M. globosa CBS 7966
(§3) Test for bacteriostatic effect (MIC=minimal inhitory concentration).
(§4) Each of the diols and their combination (1:1:1 volume/volume) was diluted directly with the test culture medium, Diagnostic Sensitivity test agar (DST) (Oxoid, UK) to obtain concentrations, in the test medium, of 2, 3, 4, 6, 9, and 12% volume percent of the respective diol and of 2, 3, and 4% of the respective diol in the combination.
S. aureus cells were added to the agar medium in concentrations of 10^3 and 10^5 cells/ml while C. albicans cells were added in a concentration of 10^6 cells/ml and M. sympodialis and M. globosa in a concentration of 10^7 cells/ml. Plates were incubated at 37° C. and analysed after 1 and 2 days. Each experiment was repeated. […] The MIC's for propane-1,2-diol, pentane-1,5-diol, 2-methylpentane-2,4-diol and the combination of these 3 diols are shown in the table 1. […]

For experiment [3], the system named is Candida albicans H 29. Put plainly: Test for bacteriostatic effect (MIC) in agar medium, C. albicans. The note with it: 10^6 cells/ml, DST agar, 37° C., analysed after 1 and 2 days; combinations: % of each diol. As to the method: as §2, §3, §4
S. aureus cells were added to the agar medium in concentrations of 10^3 and 10^5 cells/ml while C. albicans cells were added in a concentration of 10^6 cells/ml and M. sympodialis and M. globosa in a concentration of 10^7 cells/ml. Plates were incubated at 37° C. and analysed after 1 and 2 days. Each experiment was repeated. […] The MIC's for propane-1,2-diol, pentane-1,5-diol, 2-methylpentane-2,4-diol and the combination of these 3 diols are shown in the table 1.
Example 3 was performed as example 1.

Experiment [4] deals with M. sympodialis CBS 7222. The experiment is described as follows: Test for bacteriostatic effect (MIC) in agar medium, M. sympodialis. Conditions: 10^7 cells/ml, DST agar, 37° C., analysed after 1 and 2 days; combinations: % of each diol. As to the method: as §1

For the compound `CC(O)CC(C)(C)O` (stereo not drawn) [2-Methyl pentane-2,4-diol], the “MIC M. globosa” value in experiment [1] was found to be 3%. Further, in experiment [2], the “MIC S. aureaus 10^3” value was determined as 12%, the “MIC S. aureaus 10^5” value is recorded as 12% and the “concentration that completely inhibited the growth of S. aureus” value stood at 12%. In experiment [3], the “MIC C. albicans 10^6” value worked out at 4%. In experiment [4], the “MIC M. sympodialis” value is listed as 3%.
As to `CC(O)CCO` (stereo not drawn) [Butane-1,3-diol], the “MIC M. globosa” value in experiment [1] worked out at 10%. For the same compound, in experiment [2], the “MIC S. aureaus 10^3” value is on record as >12% and the “MIC S. aureaus 10^5” value is on record as >12%. The “MIC C. albicans 10^6” value in experiment [3] came to 8%. Moreover, the “MIC M. sympodialis” value in experiment [4] is on record as 10%.
On to `CCO` [Ethanol], for which the “MIC M. globosa” value in experiment [1] came to 10%. Moreover, in experiment [2], the “MIC S. aureaus 10^3” value is reported as >12% and the “MIC S. aureaus 10^5” value is reported as >12%. Also, in experiment [3], the “MIC C. albicans 10^6” value was determined as 8%. In experiment [4], the “MIC M. sympodialis” value came out at 10%.
For the compound `OCCCCCO` [Pentane-1,5-diol], the “MIC M. globosa” value in experiment [1] stood at 3%. In experiment [2], the “MIC S. aureaus 10^3” value is listed as 12%, the “MIC S. aureaus 10^5” value is reported as 12% and the “concentration that completely inhibited the growth of S. aureus” value was found to be 12%. Moreover, the “MIC C. albicans 10^6” value in experiment [3] was 4%. Also, the “MIC M. sympodialis” value in experiment [4] is 3%.
`CC(O)CO` (stereo not drawn) [Propane-1,2-diol]: the “MIC M. globosa” value in experiment [1] came to 10%. In experiment [2], the “MIC S. aureaus 10^3” value is listed as >12% and the “MIC S. aureaus 10^5” value is on record as >12%. Also, the “MIC C. albicans 10^6” value in experiment [3] was determined as 9%. Also, the “MIC M. sympodialis” value in experiment [4] is listed as 10%.
